Laboratory results taken from ChEMBL document CHEMBL1201862, “PubChem BioAssay data set” (2004).
Calls of active or inactive are those of the source.

Assays:
[1] = C. albicans growth with fluconazole, confirmation, fluorescence, retest (AID 2467); assay type: functional, cell-based
[2] = cytotoxicity toward NIH3T3 fibroblasts, dose response, counter-screen, cell-based, ATP luminescence, mouse fibroblasts (AID 2010); assay type: functional;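 also: cells exposed to compound for about 90 hours before reading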
INS1 = assay: beta cell apoptosis inhibitors, cytokine rescue, dose response, luminescence, retest (AID 449756); assay type: functional, cell-based; details: Rattus norvegicus;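 also: cell death triggered by IL-1 beta plus TNF-alpha plus IFN-gamma mixture; protective hits raise ATP signal compared with cytokine alone wells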
[3] = inhibitors of intracellular T. cruzi replication, confirmation, NIH3T3 host cells, beta-gal luminescence (AID 2044); assay type: functional, cell-based;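 also: intracellular parasites grown in NIH/3T3 mouse fibroblasts as host cells; luminescent beta-galactosidase reporter signal from transgenic T. cruzi replicating inside host cells; inhibitors lower the luminescence signal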
[4] = NIH-3T3 fibroblast cytotoxicity, dose response, cytotoxicity control, cell-based, fluorescence, Alamar Blue, secondary assay (AID 2327); assay type: functional;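 also: NIH-3T3 mouse fibroblasts cultured with fluconazole at 8 µg/mL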
[5] = P. falciparum Dd2 growth inhibitors, dose response, SYBR Green, dry powder samples (AID 1159566); assay type: functional, cell-based;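 also: potency for growth inhibition with lower SYBR green DNA signal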
[6] = inhibitors of HIV Env-driven cell fusion, dose response, cherry-pick (AID 652057); assay type: functional, cell-based
[7] = P. falciparum Dd2 growth inhibitors, dose response, SYBR Green, cherry-picked samples (AID 1159567); assay type: functional, cell-based
[8] = ZM109 Env clade C HIV-1 fusion inhibitors, dose response, HeLa effector, CEM target cells, luciferase, cherry-pick (AID 652058); assay type: functional, cell-based
[9] = P. falciparum 3D7-ScDHODH growth inhibitors, dose response, SYBR Green, dry powder samples (AID 1159570); assay type: functional, cell-based;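 also: parasite growth measured after 72 hours of compound exposure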
[10] = P. falciparum ATP4 D1247Y mutant growth inhibitors, dose response, NITD609-resistant line, SYBR Green, dry powder (AID 1159571); assay type: functional, cell-based;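 also: parasites synchronized at ring stage by sorbitol before testing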
[11] = inhibitors of clade B AD8 Env fusion, dose response, cell-based, cherry-pick (AID 652062); assay type: functional;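 also: luciferase signal from cell-cell fusion driven by HIV-1 clade B AD8 Env; potency is for inhibitors of fusion seen as a drop in luminescence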
[12] = molecular target: T1, Voltage-gated N-type calcium channel alpha-1B subunit/Amyloid beta A4 precursor protein-binding family A member 1 (Homo sapiens, UniProt Q00975+Q02410); assay type: protein assay
T1 sequence (Q00975 whole entry): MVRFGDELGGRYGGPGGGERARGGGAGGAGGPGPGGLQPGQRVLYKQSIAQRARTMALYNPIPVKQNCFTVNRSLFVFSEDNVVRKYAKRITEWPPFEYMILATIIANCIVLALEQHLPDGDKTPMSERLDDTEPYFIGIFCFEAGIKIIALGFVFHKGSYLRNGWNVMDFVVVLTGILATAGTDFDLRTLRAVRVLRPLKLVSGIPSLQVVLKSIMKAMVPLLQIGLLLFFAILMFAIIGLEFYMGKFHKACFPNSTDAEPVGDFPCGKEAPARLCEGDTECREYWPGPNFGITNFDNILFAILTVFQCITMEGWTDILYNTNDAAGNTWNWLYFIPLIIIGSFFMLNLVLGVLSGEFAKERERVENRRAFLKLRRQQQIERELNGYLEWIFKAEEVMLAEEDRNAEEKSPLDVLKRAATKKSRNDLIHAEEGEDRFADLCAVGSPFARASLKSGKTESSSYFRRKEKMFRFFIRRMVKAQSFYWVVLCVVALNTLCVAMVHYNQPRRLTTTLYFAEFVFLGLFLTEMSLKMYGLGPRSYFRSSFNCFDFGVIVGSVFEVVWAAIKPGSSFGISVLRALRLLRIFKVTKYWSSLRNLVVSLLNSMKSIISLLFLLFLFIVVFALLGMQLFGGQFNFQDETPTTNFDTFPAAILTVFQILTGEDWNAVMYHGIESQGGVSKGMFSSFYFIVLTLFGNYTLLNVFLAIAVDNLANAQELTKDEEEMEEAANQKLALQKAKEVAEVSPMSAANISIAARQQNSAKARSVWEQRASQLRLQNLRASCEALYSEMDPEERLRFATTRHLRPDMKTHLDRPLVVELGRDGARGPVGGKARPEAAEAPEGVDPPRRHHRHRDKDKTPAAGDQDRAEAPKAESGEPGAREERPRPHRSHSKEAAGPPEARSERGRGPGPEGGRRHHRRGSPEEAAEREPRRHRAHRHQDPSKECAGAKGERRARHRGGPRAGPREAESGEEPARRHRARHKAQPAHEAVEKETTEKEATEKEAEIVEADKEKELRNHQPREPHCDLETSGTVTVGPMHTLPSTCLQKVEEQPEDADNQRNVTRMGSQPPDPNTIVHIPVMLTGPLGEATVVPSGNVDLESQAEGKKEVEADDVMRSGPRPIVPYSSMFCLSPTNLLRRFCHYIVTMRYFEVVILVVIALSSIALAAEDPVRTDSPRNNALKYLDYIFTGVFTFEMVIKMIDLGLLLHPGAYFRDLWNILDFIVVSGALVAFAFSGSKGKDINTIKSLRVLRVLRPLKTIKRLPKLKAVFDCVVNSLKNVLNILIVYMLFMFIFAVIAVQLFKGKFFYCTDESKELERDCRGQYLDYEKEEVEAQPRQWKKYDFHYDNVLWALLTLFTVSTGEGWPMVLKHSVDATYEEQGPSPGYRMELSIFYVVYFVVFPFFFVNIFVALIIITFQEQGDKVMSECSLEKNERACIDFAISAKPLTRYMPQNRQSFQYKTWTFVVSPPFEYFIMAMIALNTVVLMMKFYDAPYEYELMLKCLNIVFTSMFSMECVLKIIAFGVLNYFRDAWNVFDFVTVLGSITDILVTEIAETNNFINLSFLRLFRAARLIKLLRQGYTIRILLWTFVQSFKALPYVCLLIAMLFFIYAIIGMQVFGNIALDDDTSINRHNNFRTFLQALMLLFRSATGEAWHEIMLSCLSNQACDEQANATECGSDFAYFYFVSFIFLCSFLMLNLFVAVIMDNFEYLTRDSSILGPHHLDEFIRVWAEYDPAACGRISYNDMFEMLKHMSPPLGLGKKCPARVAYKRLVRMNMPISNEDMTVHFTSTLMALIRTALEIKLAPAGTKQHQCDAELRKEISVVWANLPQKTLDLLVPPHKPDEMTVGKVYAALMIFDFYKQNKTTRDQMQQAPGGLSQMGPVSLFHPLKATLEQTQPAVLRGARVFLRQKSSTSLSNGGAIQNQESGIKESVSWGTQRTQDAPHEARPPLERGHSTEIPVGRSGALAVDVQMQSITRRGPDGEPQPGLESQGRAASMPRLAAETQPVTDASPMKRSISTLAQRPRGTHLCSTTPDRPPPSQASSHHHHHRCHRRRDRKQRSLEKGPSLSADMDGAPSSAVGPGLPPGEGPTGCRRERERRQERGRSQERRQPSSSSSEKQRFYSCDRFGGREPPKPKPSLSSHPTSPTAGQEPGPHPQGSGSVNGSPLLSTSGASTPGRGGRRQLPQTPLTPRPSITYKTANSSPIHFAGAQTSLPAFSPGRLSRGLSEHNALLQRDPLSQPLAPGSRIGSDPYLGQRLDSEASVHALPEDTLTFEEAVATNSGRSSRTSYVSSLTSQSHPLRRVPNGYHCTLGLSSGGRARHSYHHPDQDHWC
T1 sequence (Q02410 whole entry): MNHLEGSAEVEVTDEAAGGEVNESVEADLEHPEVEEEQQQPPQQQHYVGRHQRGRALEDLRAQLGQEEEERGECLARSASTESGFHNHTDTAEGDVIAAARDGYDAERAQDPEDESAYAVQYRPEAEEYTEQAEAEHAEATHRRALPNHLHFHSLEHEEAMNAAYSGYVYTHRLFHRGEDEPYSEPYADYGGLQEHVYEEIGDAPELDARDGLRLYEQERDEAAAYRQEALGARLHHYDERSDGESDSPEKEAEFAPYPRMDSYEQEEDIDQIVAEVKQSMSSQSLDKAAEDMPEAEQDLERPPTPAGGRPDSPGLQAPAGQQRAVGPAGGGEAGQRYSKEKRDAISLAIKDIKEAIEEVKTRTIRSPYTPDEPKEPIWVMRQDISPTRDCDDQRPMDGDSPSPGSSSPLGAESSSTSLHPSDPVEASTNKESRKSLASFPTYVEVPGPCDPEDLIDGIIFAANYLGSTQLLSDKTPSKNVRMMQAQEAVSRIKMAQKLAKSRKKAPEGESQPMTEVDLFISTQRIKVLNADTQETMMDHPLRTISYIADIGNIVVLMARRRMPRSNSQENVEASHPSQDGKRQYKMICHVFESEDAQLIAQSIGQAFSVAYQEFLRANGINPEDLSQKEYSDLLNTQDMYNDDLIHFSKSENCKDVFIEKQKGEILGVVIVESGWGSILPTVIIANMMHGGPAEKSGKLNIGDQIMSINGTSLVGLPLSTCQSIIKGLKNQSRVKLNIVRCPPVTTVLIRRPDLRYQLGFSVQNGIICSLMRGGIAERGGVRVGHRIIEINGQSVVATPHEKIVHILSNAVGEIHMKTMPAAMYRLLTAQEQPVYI

[13] = molecular target: FAD-linked sulfhydryl oxidase ALR (Homo sapiens, UniProt P55789); assay: inhibitors of human ALR sulfhydryl oxidase, dose response, biochemical, H2O2 detection, luminescence, cherry-pick (AID 493248)
Sequence of FAD-linked sulfhydryl oxidase ALR (P55789 whole entry): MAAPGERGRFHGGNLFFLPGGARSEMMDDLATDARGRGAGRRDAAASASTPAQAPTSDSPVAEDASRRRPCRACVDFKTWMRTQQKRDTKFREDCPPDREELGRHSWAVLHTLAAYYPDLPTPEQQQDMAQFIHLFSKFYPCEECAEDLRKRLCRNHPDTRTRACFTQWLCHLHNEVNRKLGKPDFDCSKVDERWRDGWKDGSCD

[14] = inhibitors of Vif binding to APOBEC3G peptide, primary screen, biochemical, TR-FRET, GST-Vif 1-94, biotin-A3G peptide, dose response retest (AID 1117319); assay type: functional;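 also: TR-FRET signal of purified GST-Vif binding a biotinylated A3G peptide; inhibitors lower the FRET signal by blocking Vif and A3G binding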
[15] = molecular target: Induced myeloid leukemia cell differentiation protein Mcl-1 (Homo sapiens, UniProt Q07820); assay type: functional
Sequence of Induced myeloid leukemia cell differentiation protein Mcl-1 (Q07820 whole entry): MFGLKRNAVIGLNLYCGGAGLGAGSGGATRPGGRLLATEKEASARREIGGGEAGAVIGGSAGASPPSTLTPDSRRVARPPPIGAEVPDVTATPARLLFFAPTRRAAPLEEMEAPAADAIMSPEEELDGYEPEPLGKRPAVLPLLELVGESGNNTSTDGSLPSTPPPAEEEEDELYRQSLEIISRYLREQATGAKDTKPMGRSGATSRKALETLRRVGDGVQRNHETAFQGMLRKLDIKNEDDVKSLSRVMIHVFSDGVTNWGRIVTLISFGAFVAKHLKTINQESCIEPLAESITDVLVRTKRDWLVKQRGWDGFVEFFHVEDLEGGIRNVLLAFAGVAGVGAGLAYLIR

[16] = molecular target: T1, Voltage-gated N-type calcium channel alpha-1B subunit/Amyloid beta A4 precursor protein-binding family A member 1; assay type: protein assay; remark: listed apart in the source
[17] = molecular target: T2, Oxysterols receptor LXR-beta (Homo sapiens, UniProt P55055); assay: LXR agonists, Gal4 luciferase reporter, dose response, counter-screen for ssDAF-12 agonist project, cell-based, luminescence, HEK293, S. stercoralis campaign (AID 720737); assay type: functional; details: read-out: IC50 (the source's name)
T2 sequence (P55055 whole entry): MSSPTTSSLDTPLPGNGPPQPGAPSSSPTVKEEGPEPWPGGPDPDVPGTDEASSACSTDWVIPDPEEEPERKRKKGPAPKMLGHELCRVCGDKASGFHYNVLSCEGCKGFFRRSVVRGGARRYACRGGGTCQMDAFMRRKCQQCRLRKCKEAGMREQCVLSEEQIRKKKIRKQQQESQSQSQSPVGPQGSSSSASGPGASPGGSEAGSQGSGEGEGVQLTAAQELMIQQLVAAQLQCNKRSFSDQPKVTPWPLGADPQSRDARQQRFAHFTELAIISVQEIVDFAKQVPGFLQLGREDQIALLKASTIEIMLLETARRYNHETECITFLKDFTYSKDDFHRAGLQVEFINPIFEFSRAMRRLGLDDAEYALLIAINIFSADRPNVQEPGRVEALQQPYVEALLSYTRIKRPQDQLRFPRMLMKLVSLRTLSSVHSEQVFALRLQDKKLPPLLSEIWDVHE

[18] = Luminescence-based cell-based high throughput dose response assay to identify activators of the DAF-12 from the parasite S. stercoralis (ssDAF-12).; assay type: functional
[19] = HepG2 cell cytotoxicity, dose response, cytotoxicity control, plate reader, cherry-pick, antagonist series (AID 743416); assay type: functional, cell-based
[20] = HEK293 cell cytotoxicity, dose response, cytotoxicity control, plate reader, cherry-picked samples (AID 743446); assay type: functional, cell-based
[21] = A549 cell cytotoxicity, dose response, cytotoxicity control, plate reader, cherry-pick, antagonist series (AID 743412); assay type: functional, cell-based
Large T antigen = Large T antigen (Simian virus 40, UniProt P03070); assay type: functional, Betapolyomavirus macacae;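 also: Confirmatory-stage PubChem screen for compounds that inhibit SV40 T antigen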
[22] = ADAM10 inhibitors, peptide cleavage, dose response, biochemical, QFRET (AID 743254);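 also: ADAM10 enzyme with the DM2 quenched FRET peptide as substrate; EDANS fluorescence gain as the protease cuts the substrate; inhibitor potency against ADAM10 proteolytic activity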
[23] = LGR2 antagonists, dose response, cell-based, HEK293, CRE-luciferase reporter, cherry pick, set 2 (AID 743343); assay type: functional;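 also: transfected cells were stimulated with diluted bursicon conditioned medium after compound addition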
[24] = molecular target: Disintegrin and metalloproteinase domain-containing protein 17 (Homo sapiens, UniProt P78536); assay: ADAM17 protease inhibitors, dose response, counter-screen for ADAM10 exosite inhibitor project, biochemical, quenched FRET substrate (AID 743253)
Sequence of Disintegrin and metalloproteinase domain-containing protein 17 (P78536 whole entry, the tested form may be a part): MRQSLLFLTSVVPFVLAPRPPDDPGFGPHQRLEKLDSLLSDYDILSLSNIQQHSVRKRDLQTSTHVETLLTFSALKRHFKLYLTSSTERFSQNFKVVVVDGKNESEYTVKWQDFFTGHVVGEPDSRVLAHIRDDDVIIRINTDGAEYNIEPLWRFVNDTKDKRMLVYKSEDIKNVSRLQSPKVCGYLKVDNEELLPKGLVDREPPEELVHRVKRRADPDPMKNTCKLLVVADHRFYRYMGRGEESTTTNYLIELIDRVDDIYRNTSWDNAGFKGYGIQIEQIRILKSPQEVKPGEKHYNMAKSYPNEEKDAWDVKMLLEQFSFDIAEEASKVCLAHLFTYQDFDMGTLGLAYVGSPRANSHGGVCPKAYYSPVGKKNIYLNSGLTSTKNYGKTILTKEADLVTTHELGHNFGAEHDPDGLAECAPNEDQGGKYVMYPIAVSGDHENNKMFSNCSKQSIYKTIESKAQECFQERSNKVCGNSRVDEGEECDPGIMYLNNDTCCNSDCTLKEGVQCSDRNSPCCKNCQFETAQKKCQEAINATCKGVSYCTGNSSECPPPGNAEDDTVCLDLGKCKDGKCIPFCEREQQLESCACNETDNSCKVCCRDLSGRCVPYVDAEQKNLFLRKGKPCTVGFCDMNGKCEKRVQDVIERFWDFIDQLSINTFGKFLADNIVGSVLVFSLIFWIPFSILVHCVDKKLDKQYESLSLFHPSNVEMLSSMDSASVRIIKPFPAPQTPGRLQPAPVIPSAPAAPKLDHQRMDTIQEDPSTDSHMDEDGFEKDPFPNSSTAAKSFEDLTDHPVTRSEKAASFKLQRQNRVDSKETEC

[25] = HEp-2 cell cytotoxicity, dose response, cytotoxicity control for RSV inhibitor project, HTS (AID 2410); assay type: functional; details: human respiratory syncytial virus
[26] = A cytotoxicity screen of small molecule inhibitors of the PhoP region in Salmonella typhi identified in the primary screen. [Related pubchem assays: 1850, 1864, 1985 ]; assay type: functional
[27] = molecular target: T3, DNA repair protein RAD52 homolog (Homo sapiens, UniProt P43351); assay type: functional, biochemical
T3 sequence (P43351 whole entry): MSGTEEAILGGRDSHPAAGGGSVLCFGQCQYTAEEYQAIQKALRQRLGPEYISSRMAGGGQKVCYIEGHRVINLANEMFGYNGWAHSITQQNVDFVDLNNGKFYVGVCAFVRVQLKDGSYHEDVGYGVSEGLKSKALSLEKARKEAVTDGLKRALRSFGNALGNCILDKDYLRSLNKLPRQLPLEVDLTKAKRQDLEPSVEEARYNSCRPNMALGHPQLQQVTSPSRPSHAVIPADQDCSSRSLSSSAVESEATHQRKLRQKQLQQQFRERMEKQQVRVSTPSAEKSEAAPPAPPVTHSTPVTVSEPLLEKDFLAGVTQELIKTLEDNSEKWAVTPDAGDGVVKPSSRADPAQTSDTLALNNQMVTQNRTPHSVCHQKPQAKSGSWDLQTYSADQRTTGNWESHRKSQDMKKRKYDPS

## Cc1cc(-c2ccccc2)cc(-c2ccccc2)[n+]1CCc1ccccc1.[O-][Cl+3]([O-])([O-])[O-]
cells
  EC50: 0.07 µM (active)
[1]
  EC50: 2.98 µM (active)
[2]
  EC50: > 60 µM (not active)
INS1
  AC50: < 0.195 µM (active)
[3]
  EC50: < 0.1 µM (active)
[4]
  EC50: > 160 µM (inactive)

## C[C@@H](NC(=O)C[C@H]1C[C@@H]2c3cc(NS(=O)(=O)c4ccc(F)cc4)ccc3O[C@@H]2[C@H](CO)O1)c1ccccc1
[5]
  AC50: 1.4 µM (active)
[6]
  AC50: 1.12 µM (active)
[7]
  AC50: 2.22 µM (active)
[8]
  AC50: 3.32 µM (active)
[9]
  AC50: 2.76 µM (active)
[10]
  AC50: 1.09 µM (active)
[11]
  AC50: 31.7 µM (active)

## O=[N+]([O-])c1ccc(-c2c[nH]c(S)n2)cc1
[12]
  IC50: > 50 µM (inactive)
[13]
  AC50: 1.99 µM (active)
[14]
  IC50: > 100 µM (active)
[15]
  IC50: 1.38 µM (active)
[16]
  IC50: 11.3 µM (active)

## COc1ccc(C2CC(c3cccs3)=NN2C(=O)CN2CCCCC2)cc1 (stereo not drawn)
[17]
  EC50: > 67.5 µM (inactive)
[18]
  IC50: > 67.5 µM (inactive)

## Clc1cccc(-c2nc3c4ccccc4ccn3c2Cc2ccsc2)c1
[17]
  EC50: > 67.6 µM (inactive)
[18]
  IC50: > 67.6 µM (inactive)

## COc1ccc2cc(C#N)c(Nc3cccc(F)c3)nc2c1
[19]
  AC50: > 52 µM (inactive)
[20]
  AC50: > 52 µM (inactive)
[21]
  AC50: > 52 µM (inactive)

## CCN(CC)c1ccc(NC(=O)c2ccco2)cc1
[14]
  IC50: > 100 µM (active)
Large T antigen
  IC50: 5.01 µM (active)

## O=C(CSc1nc2ccccc2[nH]1)Nc1nc(-c2cccc(Br)c2)cs1
[19]
  AC50: 38.4 µM (active)
[22]
  IC50: > 69.5 µM (inactive)
[23]
  AC50: 35.4 µM (active)
[21]
  AC50: 24.2 µM (active)
[24]
  IC50: > 69.5 µM (inactive)

## COc1ccc(-n2c(Cc3cccs3)nnc2SCC(=O)Nc2ccc(OCc3ccccc3)cc2)cc1
[22]
  IC50: > 69.5 µM (inactive)
[24]
  IC50: > 69.5 µM (inactive)

## O=C(c1cccs1)N1N=C(c2ccccc2)CC1c1ccc(O)cc1 (stereo not drawn)
[22]
  IC50: > 69.5 µM (inactive)
[25]
  CC50: 24.2 µM (active)
[24]
  IC50: > 69.5 µM (inactive)

## O=C(Nc1ccon1)C12CC3CC(C1)CC(n1cnc([N+](=O)[O-])n1)(C3)C2
cells
  EC50: 0.088 µM (active)
[2]
  EC50: > 60 µM (not active)
[3]
  EC50: < 0.1 µM (active)

## CCS(=O)(=O)c1ccc2oc(Nc3cccc(OC)c3)nc2c1
[14]
  IC50: > 100 µM (active)

## COc1cccc(NC(=O)CN(C)C(C)C(=O)Nc2ccc(S(=O)(=O)N3CCOCC3)cc2)c1 (stereo not drawn)
[26]
  EC50: > 50 µM (active)

## c1cc(OCCCN2CCCCC2)ccc1CN1CCCCC1 [JNJ-5207852]
[27]
  AC50: 10.3 µM (active)
